Source: patent US9346794B1, “Substituted 4-pyridones and their use as inhibitors of neutrophil elastase activity” (Boehringer Ingelheim International GmbH, priority 2012, dated 2016)

Molecular target: Human neutrophil elastase (Homo sapiens (Human), UniProt P08246)
Assay: Human Neutrophil Elastase Assay
Type: biochemical
Details: substrate MeOSuc-Ala-Ala-Pro-Val-AMC 250 μM, fluorescence, pH 7.5
Procedure: Human Neutrophil Elastase Assay
All other materials were of the highest grade commercially available.
The following buffers were used: Compound buffer: 100 mM Tris, 500 mM NaCl, adjusted to pH 7.5; Assay buffer: 100 mM Tris, 500 mM NaCl, adjusted to pH 7.5, containing 0.01% BSA.
Assay conditions: Test compounds were prediluted in DMSO and subsequently in compound buffer (5% DMSO final). […] After inactivation of the enzyme, fluorescence intensities were measured at 380 nm excitation and 460 nm emission wavelengths.
Each plate contains wells with a high value control (DMSO+enzyme+substrate) and wells with a low value control (DMSO+inactivated enzyme+substrate). IC50 values were estimated using a sigmoidal concentration response curve with variable slope. Means of low values were taken as 0%, means of high values as 100%. IC50 values of selected compound in the Neutrophil Elastase assay: […]

Sequence of Human neutrophil elastase (P08246 30-247): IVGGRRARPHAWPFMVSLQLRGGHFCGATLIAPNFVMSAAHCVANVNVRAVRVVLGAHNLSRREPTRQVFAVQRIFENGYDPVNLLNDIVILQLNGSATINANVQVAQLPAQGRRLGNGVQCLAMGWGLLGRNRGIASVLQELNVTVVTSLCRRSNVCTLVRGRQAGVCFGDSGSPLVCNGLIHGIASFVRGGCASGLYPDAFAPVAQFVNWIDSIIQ

IC50 | Compound
11.7 nM | Cc1c(-c2ccnc(C(F)(F)F)c2)c(=O)c(C(=O)NCc2ccc(S(C)(=O)=NC#N)cc2)cn1-c1ccncc1 (single isomer, unassigned) [Example 46]
1.2 nM | Cc1c(-c2cccc(C(F)(F)F)c2)c(=O)c(C(=O)NCc2ccc(S(C)(=O)=NC#N)cc2)cn1-c1ccnn1C (single isomer, unassigned) [Example 47]
1.3 nM | Cc1c(-c2cccc(C(F)F)c2)c(=O)c(C(=O)NCc2ccc(S(C)(=O)=NC#N)cc2)cn1C(C)C (centres unmarked) [Example 1, 5-(3-Difluoromethyl-phenyl)-1-isopropyl-6-methyl-4-oxo-1,4-dihydro-pyridine-3-carboxylic acid 4-(N-cyano-S-methylsulfonimidoyl)-benzylamide]
1.3 nM | Cc1c(-c2cccc(C(F)F)c2)c(=O)c(C(=O)NCc2ccc(S(C)(=O)=NC#N)cc2)cn1C(C)C (centres unmarked) [Example 1B, 5-(3-Difluoromethyl-phenyl)-1-isopropyl-6-methyl-4-oxo-1,4-dihydro-pyridine-3-carboxylic acid 4-(N-cyano-S-methylsulfonimidoyl)-benzylamide]
2.5 nM | CCn1cc(C(=O)NCc2ccc(S(C)(=O)=NC#N)cc2)c(=O)c(-c2cccc(C(F)F)c2)c1C (centres unmarked) [Example 5, 5-(3-Difluoromethyl-phenyl)-1-ethyl-6-methyl-4-oxo-1,4-dihydro-pyridine-3-carboxylic acid 4-(N-cyano-S-methylsulfonimidoyl)-benzylamide]
2.4 nM | Cc1c(-c2cccc(C(F)F)c2)c(=O)c(C(=O)NCc2ccc(S(C)(=O)=NC#N)cc2)cn1C1CCC1 (centres unmarked) [Example 6, 5-(3-Difluoromethyl-phenyl)-1-cyclobutyl-6-methyl-4-oxo-1,4-dihydro-pyridine-3-carboxylic acid 4-(N-cyano-S-methylsulfonimidoyl)-benzylamide]
2.1 nM | Cc1c(-c2cccc(C(F)F)c2)c(=O)c(C(=O)NCc2ccc(S(C)(=O)=NC#N)cc2)cn1-c1ccnn1C (centres unmarked) [Example 7, 5-(3-Difluoromethyl-phenyl)-6-methyl-1-(2-methyl-2H-pyrazol-3-yl)-4-oxo-1,4-dihydro-pyridine-3-carboxylic acid 4-(N-cyano-S-methylsulfonimidoyl)-benzylamide]
2.4 nM | Cc1c(-c2cccc(C(F)(F)F)c2)c(=O)c(C(=O)NCc2ccc(S(C)(=O)=NC#N)cc2)cn1-c1ccnn1C (centres unmarked) [Example 8, 6-Methyl-1-(2-methyl-2H-pyrazol-3-yl)-4-oxo-5-(3-trifluoromethyl-phenyl)-1,4-dihydro-pyridine-3-carboxylic acid 4-(N-cyano-S-methylsulfonimidoyl)-benzylamide]
< 1 nM | Cc1c(-c2cccc(C(F)(F)F)c2)c(=O)c(C(=O)NCc2ccc(S(C)(=O)=NC#N)cc2)cn1Cc1ccc(C#N)cc1 (centres unmarked) [Example 9, 1-(4-Cyano-benzyl)-6-methyl-4-oxo-5-(3-trifluoromethyl-phenyl)-1,4-dihydro-pyridine-3-carboxylic acid 4-(N-cyano-S-methylsulfonimidoyl)-benzylamide]
1.2 nM | CCn1cc(C(=O)NCc2ccc(S(=O)(CC)=NC#N)cc2)c(=O)c(-c2cccc(C(F)(F)F)c2)c1C (centres unmarked) [Example 10]
< 1 nM | CCn1cc(C(=O)NCc2ccc(S(=O)(=NC#N)C(C)C)cc2)c(=O)c(-c2cccc(C(F)(F)F)c2)c1C (centres unmarked) [Example 11]
< 1 nM | CCS(=O)(=NC#N)c1ccc(CNC(=O)c2cn(C(C)C)c(C)c(-c3cccc(C(F)(F)F)c3)c2=O)cc1 (centres unmarked) [Example 12]
2.4 nM | Cc1c(-c2cccc(C(F)(F)F)c2)c(=O)c(C(=O)NCc2ccc(S(C)(=O)=NC#N)c(F)c2)cn1C(C)C (centres unmarked) [Example 13]
1.5 nM | Cc1c(-c2cccc(C(F)(F)F)c2)c(=O)c(C(=O)NCc2ccc(S(C)(=O)=NC#N)cc2F)cn1C(C)C (centres unmarked) [Example 14]
2.2 nM | Cc1cc(S(C)(=O)=NC#N)ccc1CNC(=O)c1cn(C(C)C)c(C)c(-c2cccc(C(F)(F)F)c2)c1=O (centres unmarked) [Example 15]
1.9 nM | Cc1c(-c2cccc(C(F)(F)F)c2)c(=O)c(C(=O)NCc2ccc(S(C)(=O)=NC#N)cn2)cn1C(C)C (centres unmarked) [Example 16, 5-(3-trifluoromethyl-phenyl)-1-isopropyl-6-methyl-4-oxo-1,4-dihydro-pyridine-3-carboxylic acid (5-(N-cyano-S-methylsulfonimidoyl)pyridin-2-yl)methylamide]
7.3 nM | Cc1c(-c2cccc(C(F)(F)F)c2)c(=O)c(C(=O)NCc2ccc(S(C)(=O)=NS(C)(=O)=O)cc2)cn1C(C)C (centres unmarked) [Example 17]
1.5 nM | CCS(=O)(=NC#N)c1ccc(CNC(=O)c2cn(-c3ccnn3C)c(C)c(-c3cccc(C(F)(F)F)c3)c2=O)cc1 (centres unmarked) [Example 18]
1 nM | Cc1c(-c2cccc(C(F)(F)F)c2)c(=O)c(C(=O)NCc2ccc(S(=O)(=NC#N)C(C)C)cc2)cn1-c1ccnn1C (centres unmarked) [Example 19]
1.5 nM | CCn1cc(C(=O)NCc2ccc(S(=O)(CC)=NC#N)cc2)c(=O)c(-c2cccc(C(F)F)c2)c1C (centres unmarked) [Example 29]
< 1 nM | CCn1cc(C(=O)NCc2ccc(S(=O)(=NC#N)C(C)C)cc2)c(=O)c(-c2cccc(C(F)F)c2)c1C (centres unmarked) [Example 30]

IC50 | Compound
< 1 nM | CCS(=O)(=NC#N)c1ccc(CNC(=O)c2cn(C(C)C)c(C)c(-c3cccc(C(F)F)c3)c2=O)cc1 (centres unmarked) [Example 31]
1.1 nM | Cc1c(-c2cccc(C(F)F)c2)c(=O)c(C(=O)NCc2ccc(S(C)(=O)=NC#N)c(F)c2)cn1C(C)C (centres unmarked) [Example 32]
2.5 nM | Cc1c(-c2cccc(C(F)F)c2)c(=O)c(C(=O)NCc2ccc(S(C)(=O)=NC#N)cc2F)cn1C(C)C (centres unmarked) [Example 33]
2.4 nM | Cc1cc(S(C)(=O)=NC#N)ccc1CNC(=O)c1cn(C(C)C)c(C)c(-c2cccc(C(F)F)c2)c1=O (centres unmarked) [Example 34]
8 nM | Cc1c(-c2cccc(C(F)F)c2)c(=O)c(C(=O)NCc2ccc(S(C)(=O)=NS(C)(=O)=O)cc2)cn1C(C)C (centres unmarked) [Example 35]
1 nM | CCS(=O)(=NC#N)c1ccc(CNC(=O)c2cn(-c3ccnn3C)c(C)c(-c3cccc(C(F)F)c3)c2=O)cc1 (centres unmarked) [Example 36]
< 1 nM | Cc1c(-c2cccc(C(F)F)c2)c(=O)c(C(=O)NCc2ccc(S(=O)(=NC#N)C(C)C)cc2)cn1-c1ccnn1C (centres unmarked) [Example 37]
7.3 nM | Cc1noc(-n2cc(C(=O)NCc3ccc(S(C)(=O)=NC#N)cc3)c(=O)c(-c3cccc(C(F)(F)F)c3)c2C)c1C (centres unmarked) [Example 49]
2.3 nM | Cc1c(-c2cccc(C(F)(F)F)c2)c(=O)c(C(=O)NCc2ccc(S(C)(=O)=NC#N)cc2)cn1C1CCOCC1 (centres unmarked) [Example 53]
2.3 nM | Cc1c(-c2cccc(C(F)(F)F)c2)c(=O)c(C(=O)NCc2ccc(S(C)(=O)=NC#N)cc2)cn1C1CCOC1 (centres unmarked) [Example 54]
1.8 nM | Cc1c(-c2cccc(C(F)(F)F)c2)c(=O)c(C(=O)NCc2ccc(S(C)(=O)=NC#N)cc2)cn1C1CCCOC1 (centres unmarked) [Example 55]
3.1 nM | Cc1c(-c2cccc(C(F)(F)F)c2)c(=O)c(C(=O)NCc2ccc(S(C)(=O)=NC#N)cc2)cn1-c1nccs1 (centres unmarked) [Example 56]
1.7 nM | Cc1ccncc1-n1cc(C(=O)NCc2ccc(S(C)(=O)=NC#N)cc2)c(=O)c(-c2cccc(C(F)(F)F)c2)c1C (centres unmarked) [Example 57]
4.7 nM | Cc1ccc(-n2cc(C(=O)NCc3ccc(S(C)(=O)=NC#N)cc3)c(=O)c(-c3cccc(C(F)(F)F)c3)c2C)cn1 (centres unmarked) [Example 58]
22 nM | CN=S(=O)(c1ccc(CNC(=O)c2cn(C(C)C)c(C)c(-c3cccc(C(F)(F)F)c3)c2=O)cc1)N(C)C (centres unmarked) [Example 60, 5-(3-Trifluoromethyl-phenyl)-1-isopropyl-6-methyl-4-oxo-1,4-dihydro-pyridine-3-carboxylic acid 4-(N,N,N′-trimethylsulfamimidoyl)-benzylamide]
10.2 nM | CN=S(=O)(c1ccc(CNC(=O)c2cn(C(C)C)c(C)c(-c3cccc(C(F)F)c3)c2=O)cc1)N(C)C (centres unmarked) [Example 61, 5-(3-Difluoromethyl-phenyl)-1-isopropyl-6-methyl-4-oxo-1,4-dihydro-pyridine-3-carboxylic acid 4-(N,N,N′-trimethylsulfamimidoyl)-benzylamide]
2.7 nM | Cc1c(-c2cccc(C(F)(F)F)c2)c(=O)c(C(=O)NCc2ccc(S(C)(=O)=NC#N)c[n+]2[O-])cn1C(C)C (centres unmarked) [Example 62, 5-(3-Trifluoromethyl-phenyl)-1-isopropyl-6-methyl-4-oxo-1,4-dihydro-pyridine-3-carboxylic acid (5-(N-cyano-S-methylsulfonimidoyl)-1-oxy-pyridin-2-yl)-methylamide]
1.4 nM | Cc1c(-c2cccc(C(F)(F)F)c2)c(=O)c(C(=O)NCc2ccc(S(=O)(=NC#N)C3CC3)cc2)cn1C(C)C (centres unmarked) [Example 63, 1-Isopropyl-6-methyl-4-oxo-5-(3-trifluoromethyl-phenyl)-1,4-dihydro-pyridine-3-carboxylic acid 4-(S-cyclopropyl-N-cyanosulfonimidoyl)-benzylamide]
3.4 nM | Cc1cc(CNC(=O)c2cn(C(C)C)c(C)c(-c3cccc(C(F)(F)F)c3)c2=O)ccc1S(C)(=O)=NC#N (centres unmarked) [Example 66, 1-Isopropyl-6-methyl-4-oxo-5-(3-trifluoromethyl-phenyl)-1,4-dihydro-pyridine-3-carboxylic acid 3-methyl-4-(N-cyano-S-methylsulfonimidoyl)-benzylamide]
49.3 nM | CN=S(C)(=O)c1ccc(CNC(=O)c2cn(C(C)C)c(C)c(-c3cccc(C(F)(F)F)c3)c2=O)cc1 (centres unmarked) [Example 67, 1-Isopropyl-6-methyl-4-oxo-5-(3-trifluoromethyl-phenyl)-1,4-dihydro-pyridine-3-carboxylic acid 4-(N,S-dimethylsulfonimidoyl)-benzylamide]
